Reference: US6737383B1, “Herbicidal oxadiazolidines” (priority 1999, dated 2004)

Assays:
jointed goatgrass [1] = assay: Test E jointed goatgrass; format: in vivo, Aegilops cylindrica; conditions: Postemergence
Description: (§1) Compounds evaluated in this test were formulated in a non-phytotoxic solvent mixture which included a surfactant and applied to plants that were in the 1- to 4-leaf stage (postemergence application). A mixture of sandy loam soil and greenhouse potting mix in a 60:40 ratio was used for the postemergence test.
(§2) Plantings of these crops and weed species were adjusted to produce plants of appropriate size for the postemergence test. All plant species were grown using normal greenhouse practices. Crop and weed species include annual bluegrass (Poa annua), blackgrass (Alopecurus myosuroides), black nightshade (Solanum nigra), chickweed (Stellaria media), common poppy (Papaver rhoeas), deadnettle (Lamium amplexicaule), downy brome (Bromus tectorum), field violet (Viola arvensis), galium (Galium aparine), green foxtail (Setaria viridis), Italian ryegrass (Lolium multiflorum), jointed goatgrass (Aegilops cylindrica), kochia (Kochia scoparia), lambsquarters (Chenopodium album), littleseed canarygrass (Phalaris minor), rape (Brassica napus), redroot pigweed (Amaranthus retroflexus), Russian thistle (Salsola kali), scentless chamomile (Matricaria inodora), spring barley (Hordeum vulgare), sugar beet (Beta vulgaris), sunflower (Helianthus annuus), ivyleaf speedwell (Veronica hederaefolia), spring wheat (Triticum aestivum), winter wheat (Triticum aestivum), wild buckwheat (Polygonum convolvulus), wild mustard (Sinapis arvensis), wild oat (Avena fatua), windgrass (Apera spica-venti) and winter barley (Hordeum vulgare).
(§3) Treated plants and untreated controls were maintained in a greenhouse for approximately 21 to 28 days, after which all treated plants were compared to untreated controls and visually evaluated. […] A dash response (-) means no test result.

jointed goatgrass [2] = assay: Test E jointed goatgrass; format: in vivo, Aegilops cylindrica; conditions: Preemergence
soybean = assay: Test C postemergence soybean; format: in vivo, Glycine max; conditions: 0 to 100 scale, 0 no effect, 100 complete control
Description: (§4) Compounds evaluated in this test were formulated in a non-phytotoxic solvent mixture which included a surfactant and applied to plants that were grown for various periods of time before treatment (postemergence application). A mixture of sandy loam soil and greenhouse potting mix in a 60:40 ratio was used for the postemergence test.
(§5) Plantings of these crops and weed species were adjusted to produce plants of appropriate size for the postemergence test. All plant species were grown using normal greenhouse practices. Crop and weed species include arrowleaf sida (Sida rhombifolia), barnyardgrass (Echinochloa crus-galli), cocklebur (Xanthium strumarium), common ragweed (Ambrosia elatior), corn (Zea mays), cotton (Gossypium hirsutum), eastern black nightshade (Solanum ptycanthum), fall panicum (Panicum dichotomiflorum), field bindweed (Convolvulus arvensis), giant foxtail (Setaria faberii), hairy beggarticks (Bidens pilosa), ivyleaf morningglory (Ipomoea hederacea), johnsongrass (Sorghum halepense), ladysthumb smartweed (Polygonum persicaria), lambsquarters (Chenopodium album), large crabgrass (Digitaria sanguinalis), purple nutsedge (Cyperus rotundus), redroot pigweed (Amaranthus retroflexus), soybean (Glycine max), surinam grass (Brachiaria decumbens), velvetleaf (Abutilon theophrasti) and wild poinsettia (Euphorbia heterophylla).
(§6) Treated plants and untreated controls were maintained in a greenhouse for approximately 14, to 21 days, after which all treated plants were compared to untreated controls and visually evaluated. Plant response ratings, summarized in Table C, were based upon a 0 to 100 scale where 0 was no effect and 100 was complete control. A dash response (−) means no test result.

galium = assay: Test E galium; format: in vivo, Galium aparine; conditions: Preemergence
rape = assay: Test E rape; format: in vivo, Brassica napus; conditions: Preemergence
fall panicum = assay: Test C postemergence fall panicum; format: in vivo, Panicum dichotomiflorum; conditions: 0 to 100 scale, 0 no effect, 100 complete control
Outline: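 Visual ratings on a 0 to 100 scale, where 0 means no effect and 100 complete control, were made versus untreated controls roughly 14 to 21 days after postemergence treatment. Test compounds were formulated in a non-phytotoxic solvent mixture containing a surfactant.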

wild mustard [3] = assay: Test E wild mustard; format: in vivo, Sinapis arvensis; conditions: Postemergence
Description: […] A mixture of sandy loam soil and greenhouse potting mix in a 60:40 ratio was used for the postemergence test.
as §2, §3

wild mustard [4] = assay: Test E wild mustard; format: in vivo, Sinapis arvensis; conditions: Preemergence
field violet = assay: Test E field violet; format: in vivo, Viola arvensis; conditions: Postemergence
Description: as §1, §2, §3

Russian thistle = assay: Test E Russian thistle; format: in vivo, Salsola kali; conditions: Preemergence
purple nutsedge = assay: Test C postemergence purple nutsedge; format: in vivo, Cyperus rotundus; conditions: 0 to 100 scale, 0 no effect, 100 complete control
Description: as §4, §5, §6

sandbur = assay: Test D sandbur; format: in vivo, Cenchrus echinatus; conditions: Postemergence, 0 to 100 scale
Spanishneedles = assay: Test D Spanishneedles; format: in vivo, Bidens bipinnata; conditions: Postemergence, 0 to 100 scale
guineagrass = assay: Test D guineagrass; format: in vivo, Panicum maximum; conditions: Postemergence, 0 to 100 scale
itchgrass = assay: Test D itchgrass; format: in vivo, Rottboellia exaltata; conditions: Postemergence, 0 to 100 scale
common ragweed = assay: Test D common ragweed; format: in vivo, Ambrosia elatior; conditions: Postemergence, 0 to 100 scale
[5] = Rate 250 g/ha, 0 to 100 scale where 0 is no effect and 100 is complete control
[6] = Rate 125 g/ha, 0 to 100 scale (0 no effect, 100 complete control)
[7] = Rate 16 g/ha, 0 no injury, 100 complete control
[8] = Rate 32 g/ha, 0 no injury, 100 complete control
[9] = Rate 64 g/ha, 0 no injury, 100 complete control
[10] = Rate 125 g/ha, 0 no injury, 100 complete control

CC(C)N(C(=O)n1oc(=O)n(C)c1=O)c1ccc(F)cc1 [Compound 138]
Plant response rating, Jointed goatgra (jointed goatgrass [1]; Rate 125 g/ha, 0 to 100 scale): 0 | Jointed goatgra plant response rating (jointed goatgrass [1]; [5]): 0 | Plant response rating, Jointed goatgra (jointed goatgrass [2]; [6]): 65 | Jointed goatgra plant response rating (0 to 100 scale) (jointed goatgrass [2]; Rate 250 g/ha): 80 | Plant response rating, Soybean (soybean; Rate 140 g/ha): 10 | Plant response rating, Soybean (soybean; Rate 280 g/ha): 30 | Plant response rating, Soybean (soybean; Rate 560 g/ha): 30 | Plant response rating, Soybean (soybean; Rate 1120 g/ha): 40 | Plant response rating, Galium (galium; [6]): 50 | Galium plant response rating (0 to 100 scale) (galium; Rate 250 g/ha): 70 | Plant response rating, Rape (rape; [6]): 30 | Rape plant response rating (0 to 100 scale) (rape; Rate 250 g/ha): 95 | Plant response rating Fall panicum (fall panicum; Rate 140 g/ha): 0 | Plant response rating Fall panicum (fall panicum; Rate 280 g/ha): 0 | Plant response rating Fall panicum (fall panicum; Rate 560 g/ha): 60 | Plant response rating Fall panicum (fall panicum; Rate 1120 g/ha): 90 | Plant response rating, Wild mustard (wild mustard [3]; Rate 125 g/ha, 0 to 100 scale): 0 | Wild mustard plant response rating (wild mustard [3]; [5]): 0 | Plant response rating, Wild mustard (wild mustard [4]; [6]): 40 | Wild mustard plant response rating (0 to 100 scale) (wild mustard [4]; Rate 250 g/ha): 55 | Plant response rating, Field violet (field violet; Rate 125 g/ha, 0 to 100 scale): 10 | Field violet plant response rating (field violet; [5]): 30 | Plant response rating, Russian thistle (Russian thistle; [6]): 10 | Russian thistle plant response rating (0 to 100 scale) (Russian thistle; Rate 250 g/ha): 20 | Plant response rating, Purple nutsedge (purple nutsedge; Rate 140 g/ha): 0 | Plant response rating, Purple nutsedge (purple nutsedge; Rate 280 g/ha): 0 | Plant response rating, Purple nutsedge (purple nutsedge; Rate 560 g/ha): 50 | Plant response rating, Purple nutsedge (purple nutsedge; Rate 1120 g/ha): 70

CC(C)N(C(=O)n1oc(=O)n(C2CCCCCC2)c1=O)c1ccc(F)cc1F [Compound 342]
Plant response rating, Sandbur (sandbur; [7]): 0 | Plant response rating, Sandbur (sandbur; [8]): 0 | Sandbur plant response rating (sandbur; [9]): 0 | Plant response rating, Sandbur (sandbur; Rate 250 g/ha): 0 | Plant response rating, Spanishneedles (Spanishneedles; [7]): 0 | Plant response rating, Spanishneedles (Spanishneedles; [8]): 0 | Spanishneedles plant response rating (Spanishneedles; [9]): 0 | Spanishneedles plant response rating (Spanishneedles; [10]): 0 | Plant response rating, Spanishneedles (Spanishneedles; Rate 250 g/ha): 0 | Plant response rating, Guineagrass (guineagrass; [7]): 0 | Plant response rating, Guineagrass (guineagrass; [8]): 0 | Guineagrass plant response rating (guineagrass; [9]): 0 | Plant response rating, Guineagrass (guineagrass; [9]): 80 | Plant response rating, Guineagrass (guineagrass; [10]): 50 | Plant response rating, Guineagrass (guineagrass; Rate 250 g/ha): 90 | Plant response rating, Itchgrass (itchgrass; [7]): 0 | Plant response rating, Itchgrass (itchgrass; [8]): 0 | Plant response rating, Itchgrass (itchgrass; [9]): 0 | Plant response rating, Itchgrass (itchgrass; [10]): 0 | Plant response rating, Itchgrass (itchgrass; Rate 250 g/ha): 0 | Plant response rating, C. ragweed (common ragweed; [8]): 0 | Plant response rating, C. ragweed (common ragweed; [9]): 0 | Plant response rating, C. ragweed (common ragweed; [10]): 0 | Plant response rating, C. ragweed (common ragweed; Rate 250 g/ha): 100
